Measured values: patent US20250134870A1, “PATHWAY MODULATOR, PHARMACEUTICAL COMPOSITION HAVING SAME, USE THEREOF, AND THERAPEUTIC METHOD USING SAME” (Jiangsu Yahong Meditech Co., Ltd., priority 2021, published 2025)
Like-named read-outs stand apart in the source and are kept apart here.

Experiments:
[1] = test system: 2,4-dinitrobenzenesulfonic acid (DNBS)-induced colitis; assay: DNBS-induced colitis in rats: macroscopic evaluation of colon on Day 7 (colon length, weight, ulcer area, CW/CL, CW/BW, CW/CL/BW); format: in vivo, Wistar rats; details: for inhibition at 3 mg/kg / inhibition at 10 mg/kg / inhibition at 30 mg/kg: Rattus norvegicus, 168 h; for BW / CW/BW ×100 / Ulcer area / Ulcer length / Ulcer width: mean
Description: (3) Colon observation: after the end of the experiment, all animals were anesthetized with Zoletil (intravenous injection, 25 mg/kg) and the abdominal cavity was opened. Blood was collected from the abdominal aorta with EDTA anticoagulation (centrifugation conditions: 4° C., 2,000 g, 10 min). After the animals were sacrificed by bloodletting, the colon (from the cecum to the anus) was dissected and the colon length was measured immediately. The colon was longitudinally incised and rinsed until clean. Then the colon weight and ulcer area were recorded, and the colon was photographed as a whole and divided into three parts, among which two parts were stored at −80° C. after flash freezing with liquid nitrogen for MPO and cytokine detection, and the other part of colon was fixed with 10% neutral buffered formalin. If the ulcer was irregularly shaped, it could be considered as rectangular, and then its length and width were measured for ulcer area assessment. Ulcer area (cm^2)=ulcer length (cm)×ulcer width (cm).

[2] = test system: imiquimod (IMQ)-induced psoriasis; assay: Imiquimod (IMQ)-induced psoriasis in mice: erythema, scales, thickness, total score, AUC (Example 8); format: in vivo, Balb/c mice; set-up: key to erythema score / scales score / thickness score: 0 = none, 1 = mild, 2 = moderate, 3 = obvious/severe; key to total score of erythema + scales + thickness: sum of three 0-3 scores (erythema + scales + thickening), 0-9
Description: All mice were shaved with a pet shaver to get an area of 2×3 cm on the back one day before the start of the experiment.
65 animals were randomly divided into groups according to body weight, and the dosing regimen was as follows.
Imiquimod (IMQ) cream: 62.5 mg of IMQ cream for each mouse in G2 to G7; Dexamethasone (DEX) ointment: 70 mg of ointment for each mouse in G4;
Tofacitinib: Tofacitinib was dissolved in dimethyl sulfoxide to 5 mg/mL, and 50 μL was added to IMQ cream for daily treatment.
Mice in Groups 2 to 7 received daily topical doses of 62.5 mg of IMQ cream on their shaved back from Day 0 to Day 7.
Dosing of the test compounds and reference substance was carried out according to Table 29 for 7 consecutive days.
To assess the severity of inflammation of skin on the back, the skin on the back was scored according to Table 30. Erythema, scales and thickening were scored independently on a scale of 0 to 3, 0, none; 1. mild; 2. moderate; 3. obvious/severe.
The inhibition rate was calculated according to the following formula: Inhibition rate=[AUC (solvent)−AUC (treatment)]/AUC (solvent)×100%. Wherein, solvent referred to the solvent group corresponding to the route of administration.

[3] = G4 Test group 1#, 3 mg/kg PO QD × 7
[4] = G5 Test group 2#, 10 mg/kg PO QD × 7
[5] = G6 Test group 3#, 30 mg/kg PO QD × 7
[6] = Day 0, 50 mg/kg oral QD (Nepicastat A)
[7] = Day 0, 100 mg/kg topical QD (Nepicastat B)
[8] = Day 0, group Nepicastat A (50 mpk oral)
[9] = Day 0, group Nepicastat B (100 mpk topical)
[10] = Day 1, 50 mg/kg oral QD (Nepicastat A)
[11] = Day 1, 100 mg/kg topical QD (Nepicastat B)
[12] = Day 1, group Nepicastat A (50 mpk oral)
[13] = Day 1, group Nepicastat B (100 mpk topical)
[14] = Day 2, 50 mg/kg oral QD (Nepicastat A)
[15] = Day 2, 100 mg/kg topical QD (Nepicastat B)
[16] = Day 2, group Nepicastat A (50 mpk oral)
[17] = Day 2, group Nepicastat B (100 mpk topical)
[18] = Day 3, 50 mg/kg oral QD (Nepicastat A)
[19] = Day 3, 100 mg/kg topical QD (Nepicastat B)
[20] = Day 3, group Nepicastat A (50 mpk oral)
[21] = Day 3, group Nepicastat B (100 mpk topical)
[22] = Day 4, 50 mg/kg oral QD (Nepicastat A)
[23] = Day 4, 100 mg/kg topical QD (Nepicastat B)
[24] = Day 4, group Nepicastat A (50 mpk oral)
[25] = Day 4, group Nepicastat B (100 mpk topical)
[26] = Day 5, 50 mg/kg oral QD (Nepicastat A)
[27] = Day 5, 100 mg/kg topical QD (Nepicastat B)
[28] = Day 5, group Nepicastat A (50 mpk oral)
[29] = Day 5, group Nepicastat B (100 mpk topical)
[30] = Day 6, 50 mg/kg oral QD (Nepicastat A)
[31] = Day 6, 100 mg/kg topical QD (Nepicastat B)
[32] = Day 6, group Nepicastat A (50 mpk oral)
[33] = Day 6, group Nepicastat B (100 mpk topical)
[34] = Day 7, 50 mg/kg oral QD (Nepicastat A)
[35] = Day 7, 100 mg/kg topical QD (Nepicastat B)
[36] = Day 7, group Nepicastat A (50 mpk oral)
[37] = Day 7, group Nepicastat B (100 mpk topical)
[38] = oral administration 50 mg/kg, Day 5 to Day 7

In the case of `NCc1c[nH]c(=S)n1[C@H]1CCc2c(F)cc(F)cc2C1` [Nepicastat], the inhibition at 3 mg/kg ([1]; 3 mg/kg (Test group 1#), read-out: inhibition rate of CW/BW) is reported as 40.2%, the inhibition at 3 mg/kg ([1]; 3 mg/kg (Test group 1#), read-out: inhibition rate of CW/CL) is reported as 30.8% and the inhibition at 3 mg/kg ([1]; 3 mg/kg (Test group 1#), read-out: inhibition rate of CW/CL/BW) is reported as 33%. It also gave an inhibition at 10 mg/kg ([1]; 10 mg/kg (Test group 2#), read-out: inhibition rate of CW/BW) of 47.1%, an inhibition at 10 mg/kg ([1]; 10 mg/kg (Test group 2#), read-out: inhibition rate of CW/CL) of 43.8% and an inhibition at 10 mg/kg ([1]; 10 mg/kg (Test group 2#), read-out: inhibition rate of CW/CL/BW) of 45%. It also gave an inhibition at 30 mg/kg ([1]; 30 mg/kg (Test group 3#), read-out: inhibition rate of CW/BW) of 39.9%, an inhibition at 30 mg/kg ([1]; 30 mg/kg (Test group 3#), read-out: inhibition rate of CW/CL) of 26.7% and an inhibition at 30 mg/kg ([1]; 30 mg/kg (Test group 3#), read-out: inhibition rate of CW/CL/BW) of 27.1%. It also gave an inhibition at 3 mg/kg ([1]; G4 Test group 1#, 3 mg/kg PO QD × 7, read-out: IR1 (inhibition rate 1, CW/CL/BW)) of 33%, an inhibition at 3 mg/kg ([1]; G4 Test group 1#, 3 mg/kg PO QD × 7, read-out: IR2 (inhibition rate 2, CW/BW)) of 40.2% and an inhibition at 3 mg/kg ([1]; G4 Test group 1#, 3 mg/kg PO QD × 7, read-out: IR3 (inhibition rate 3, CW/CL)) of 30.8%. The inhibition at 10 mg/kg ([1]; G5 Test group 2#, 10 mg/kg PO QD × 7, read-out: IR1 (inhibition rate 1, CW/CL/BW)) was 45%, the inhibition at 10 mg/kg ([1]; G5 Test group 2#, 10 mg/kg PO QD × 7, read-out: IR2 (inhibition rate 2, CW/BW)) was 47.1% and the inhibition at 10 mg/kg ([1]; G5 Test group 2#, 10 mg/kg PO QD × 7, read-out: IR3 (inhibition rate 3, CW/CL)) was 43.8%. The inhibition at 30 mg/kg ([1]; G6 Test group 3#, 30 mg/kg PO QD × 7, read-out: IR1 (inhibition rate 1, CW/CL/BW)) was 27.1%, the inhibition at 30 mg/kg ([1]; G6 Test group 3#, 30 mg/kg PO QD × 7, read-out: IR2 (inhibition rate 2, CW/BW)) was 39.9% and the inhibition at 30 mg/kg ([1]; G6 Test group 3#, 30 mg/kg PO QD × 7, read-out: IR3 (inhibition rate 3, CW/CL)) was 26.7%. For the same molecule, the BW [1, 3] was 168.65 g, the “CW/BW ×100” value [1, 3] was 1.05 and the Ulcer area [1, 3] was 1.36 cm^2. It also gave a Ulcer length [1, 3] of 1.08 cm, a Ulcer width [1, 3] of 0.87 cm and a BW [1, 4] of 169.54 g. For the same molecule, the “CW/BW ×100” value [1, 4] was 1.01, the Ulcer area [1, 4] was 1.17 cm^2 and the Ulcer length [1, 4] was 0.97 cm. For the same molecule, the Ulcer width [1, 4] was 0.73 cm, the BW [1, 5] was 164.62 g and the “CW/BW ×100” value [1, 5] was 1.05. For the same molecule, the Ulcer area [1, 5] was 1.35 cm^2, the Ulcer length [1, 5] was 1.09 cm and the Ulcer width [1, 5] was 0.95 cm. For the same molecule, the “progression and incidence of the disease” value ([2]; 50 mg/kg oral and 100 mg/kg topical QD × 7 days) was “did not affect the progression and incidence of the disease, but showed efficacy at the later stages of the disease course (Day 5 to Day 7)”, the “efficacy on the clinical score of the skin” value ([2]; 100 mpk topical QD × 7 days) was “no significant efficacy” and the erythema score [2, 6] was 0. For the same molecule, the scales score [2, 6] was 0, the erythema score [2, 7] was 0 and the scales score [2, 7] was 0. For the same molecule, the thickness score [2, 8] was 0, the “total score of erythema + scales + thickness” value (“total score” below) [2, 8] was 0 and the thickness score [2, 9] was 0. The “total score” value [2, 9] was 0, the erythema score [2, 10] was 0 and the scales score [2, 10] was 0. It also gave an erythema score [2, 11] of 0, a scales score [2, 11] of 0 and a thickness score [2, 12] of 0.6. For the same molecule, the “total score” value [2, 12] was 0.6, the thickness score [2, 13] was 0.9 and the “total score” value [2, 13] was 0.9. The erythema score [2, 14] was 1.4, the scales score [2, 14] was 0 and the erythema score [2, 15] was 1.5. The scales score [2, 15] was 0, the thickness score [2, 16] was 1.2 and the “total score” value [2, 16] was 2.6. The thickness score [2, 17] was 1.3, the “total score” value [2, 17] was 2.8 and the erythema score [2, 18] was 1.5. For the same molecule, the scales score [2, 18] was 0, the erythema score [2, 19] was 1.8 and the scales score [2, 19] was 0. For the same molecule, the thickness score [2, 20] was 1.6, the “total score” value [2, 20] was 3.1 and the thickness score [2, 21] was 1.5. For the same molecule, the “total score” value [2, 21] was 3.3, the erythema score [2, 22] was 1.6 and the scales score [2, 22] was 1.1. It also gave an erythema score [2, 23] of 1.8, a scales score [2, 23] of 1.2 and a thickness score [2, 24] of 1.4. For the same molecule, the “total score” value [2, 24] was 4.1, the thickness score [2, 25] was 1.5 and the “total score” value [2, 25] was 4.5. For the same molecule, the erythema score [2, 26] was 1.6, the scales score [2, 26] was 1.6 and the erythema score [2, 27] was 1.7. The scales score [2, 27] was 2.5, the thickness score [2, 28] was 1.3 and the “total score” value [2, 28] was 4.5. The thickness score [2, 29] was 1.3, the “total score” value [2, 29] was 5.5 and the erythema score [2, 30] was 1.7. It also gave a scales score [2, 30] of 1.9, an erythema score [2, 31] of 1.5 and a scales score [2, 31] of 2.4. The thickness score [2, 32] was 1.4, the “total score” value [2, 32] was 5 and the thickness score [2, 33] was 1.3. For the same molecule, the “total score” value [2, 33] was 5.2, the erythema score [2, 34] was 1.6 and the scales score [2, 34] was 2.1. The erythema score [2, 35] was 1.2, the scales score [2, 35] was 2.1 and the thickness score [2, 36] was 1.4. For the same molecule, the “total score” value [2, 36] was 5.1, the thickness score [2, 37] was 1.4 and the “total score” value [2, 37] was 4.7. For the same molecule, the inhibition at 50 mg/kg ([2]; Mus musculus, 168 h, 50 mpk oral QD × 7 days, vs corresponding solvent group, read-out: inhibition rate (AUC of total clinical score)) was 23.6%, the “therapeutic effect on clinical symptoms” value ([2]; PO 50 mg/kg QD × 7 days, vs solvent group and control group) was “mild therapeutic effect on clinical symptoms” and the erythema [2, 38] was “inhibited”. For the same molecule, the thickness [2, 38] was “inhibited” and the erythema ([2]; topical administration 100 mg/kg, Day 4 to Day 7) was “inhibited”.
